Source: publication PMC8198649, “Development of Halogenated Pyrazolines as Selective Monoamine Oxidase-B Inhibitors: Deciphering via Molecular Dynamics Approach” (Molecules, 2021)

Assays:
[1] = design: method as in PMID 12667689; conditions: PAMPA-BBB; cited from earlier work
recombinant human MAO-A = biological target: T1, recombinant human MAO-A (Homo sapiens, UniProt P21397); assay: MAO-A inhibition assay (kynuramine substrate) and kinetics; format: biochemical; conditions: for remaining activity at 10 µM: 10 µM compound, read-out: Residual Activity at 10 µM (%) MAO-A; for IC50: reference compounds after preincubation for 30 min with enzymes; for Ki: Lineweaver–Burk and secondary plots; for Type of MAO-A inhibition: Lineweaver–Burk plots
T1 construct: purchased Sigma-Aldrich (St. Louis, MO, USA)
T1 sequence (P21397 1-527): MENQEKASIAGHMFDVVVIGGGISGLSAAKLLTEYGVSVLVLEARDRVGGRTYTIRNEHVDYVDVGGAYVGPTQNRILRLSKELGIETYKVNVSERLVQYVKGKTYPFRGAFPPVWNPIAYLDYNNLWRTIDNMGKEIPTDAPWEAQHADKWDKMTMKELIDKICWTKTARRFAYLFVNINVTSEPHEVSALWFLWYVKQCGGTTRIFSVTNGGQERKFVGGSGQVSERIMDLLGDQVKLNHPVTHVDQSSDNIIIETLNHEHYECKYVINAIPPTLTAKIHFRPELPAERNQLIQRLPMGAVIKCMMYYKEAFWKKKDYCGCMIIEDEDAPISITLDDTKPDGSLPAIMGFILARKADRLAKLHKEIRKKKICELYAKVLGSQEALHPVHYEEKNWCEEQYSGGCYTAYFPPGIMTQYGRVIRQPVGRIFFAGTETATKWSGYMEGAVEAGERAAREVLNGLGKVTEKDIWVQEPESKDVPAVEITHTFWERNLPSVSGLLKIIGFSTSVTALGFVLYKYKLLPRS
Text: (§1) The enzymes and chemicals were purchased from Sigma-Aldrich (St. Louis, MO, USA).

MAO-B [2] = biological target: T2, MAO-B (Homo sapiens, UniProt P27338); assay: MAO-B inhibition assay (benzylamine substrate) and kinetics; format: biochemical; conditions: for remaining activity at 10 µM: 10 µM compound, read-out: Residual Activity at 10 µM (%) MAO-B; for IC50: reference compounds after preincubation for 30 min with enzymes; for Ki: Lineweaver–Burk and secondary plots; for Type of MAO-B inhibition: Lineweaver–Burk plots
T2 construct: purchased Sigma-Aldrich (St. Louis, MO, USA)
T2 sequence (P27338 1-520): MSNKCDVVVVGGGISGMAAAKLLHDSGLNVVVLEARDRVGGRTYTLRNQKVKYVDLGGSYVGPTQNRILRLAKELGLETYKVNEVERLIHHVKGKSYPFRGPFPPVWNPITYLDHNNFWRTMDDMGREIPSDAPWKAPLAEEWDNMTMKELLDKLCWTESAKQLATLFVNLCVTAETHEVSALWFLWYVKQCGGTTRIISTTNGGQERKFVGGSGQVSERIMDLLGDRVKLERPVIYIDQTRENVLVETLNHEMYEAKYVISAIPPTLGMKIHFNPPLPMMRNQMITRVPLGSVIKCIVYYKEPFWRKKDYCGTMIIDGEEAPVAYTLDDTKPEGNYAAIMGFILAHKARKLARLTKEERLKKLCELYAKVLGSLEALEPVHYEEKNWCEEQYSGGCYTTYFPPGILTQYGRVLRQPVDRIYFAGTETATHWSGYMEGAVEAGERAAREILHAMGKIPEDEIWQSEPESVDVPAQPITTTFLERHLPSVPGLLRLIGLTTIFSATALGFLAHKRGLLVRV
Text: as §1

AChE = AChE (Electrophorus electricus, UniProt O42275); assay: AChE inhibition; format: biochemical; conditions: 10 µM compound; read-out: Residual Activity at 10 µM (%) AChE
AChE, sequence (O42275 24-633): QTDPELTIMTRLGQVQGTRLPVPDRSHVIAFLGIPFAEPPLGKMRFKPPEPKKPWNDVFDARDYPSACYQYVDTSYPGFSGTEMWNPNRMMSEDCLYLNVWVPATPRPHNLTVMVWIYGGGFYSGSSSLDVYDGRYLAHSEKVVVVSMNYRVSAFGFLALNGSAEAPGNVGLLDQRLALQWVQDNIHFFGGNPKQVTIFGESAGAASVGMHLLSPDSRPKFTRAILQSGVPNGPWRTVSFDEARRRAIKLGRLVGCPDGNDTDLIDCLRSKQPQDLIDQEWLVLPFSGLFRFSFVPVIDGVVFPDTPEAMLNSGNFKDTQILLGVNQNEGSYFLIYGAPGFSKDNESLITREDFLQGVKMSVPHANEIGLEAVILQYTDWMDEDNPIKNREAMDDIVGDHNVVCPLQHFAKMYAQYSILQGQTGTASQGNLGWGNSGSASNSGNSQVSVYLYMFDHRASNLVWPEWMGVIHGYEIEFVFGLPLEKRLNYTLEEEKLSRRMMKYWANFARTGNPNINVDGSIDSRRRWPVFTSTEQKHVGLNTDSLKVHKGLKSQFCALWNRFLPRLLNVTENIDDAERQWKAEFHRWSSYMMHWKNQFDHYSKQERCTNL

[3] = Parallel artificial membrane permeability assay (PAMPA), BBB; conditions: for Papp: PAMPA
Text: The CNS bioavailability of the molecules was confirmed by a parallel artificial membrane permeability assay (PAMPA) [40].

MAO-B [4] = biological target: T2, MAO-B; assay: Reversibility of MAO-B inhibition by dialysis; format: biochemical
Method: Reversibilities of EH7 were analyzed using a dialysis method after preincubating with MAO-B for 30 min, as previously described. […] The relative activities for undialyzed (AU) and dialyzed (AD) samples were compared to determine the reversibility patterns.

SMILES	Bibliography Pe [1]	remaining activity at 10 µM (recombinant human MAO-A)	IC50 (recombinant human MAO-A)	SI (selectivity index) (MAO-B [2])	remaining activity at 10 µM (MAO-B [2])	IC50 (MAO-B [2])	remaining activity at 10 µM (AChE)	Papp [3]	Ki (recombinant human MAO-A)	Type of MAO-A inhibition (recombinant human MAO-A)	Ki (MAO-B [2])	Type of MAO-B inhibition (MAO-B [2])	Relative activity of undialyzed sample (AU) (MAO-B [4]; EH7 0.15 µM, lazabemide 0.20 µM, pargyline 0.30 µM, 30 min preincubation)	Relative activity of dialyzed sample (AD) (MAO-B [4]; EH7 0.15 µM, lazabemide 0.20 µM, pargyline 0.30 µM, 30 min preincubation, dialysis)	Reversibility of MAO-B inhibition (MAO-B [4]; dialysis)	Prediction (CNS permeability) ([3]; PAMPA-BBB)	Experimental Pe ([3]; PAMPA-BBB)
NCCc1ccc(O)c(O)c1 [Dopamine]	0.2 ×10⁻⁶ cm/s																
CCOc1ccc(C2=NNC(c3ccccc3)C2)cc1 (stereo not shown) [EH1, 3-(4-ethoxyphenyl)-5-phenyl-4,5-dihydro-1H-pyrazole]		99.1 ± 0.27%	> 40 µM	>7.43	33.7 ± 0.96%	5.38 ± 0.16 µM	81 ± 6.21%	10.3 ± 0.33 ×10⁻⁶ cm/s									
CCOc1ccc(C2=NNC(c3ccc(Cl)cc3)C2)cc1 (stereo not shown) [EH6, 5-(4-chlorophenyl)-3-(4-ethoxyphenyl)-4,5-dihydro-1H-pyrazole]		68.1 ± 0.18%	22.3 ± 0.12 µM		19.4 ± 1.01%	0.4 ± 0.051 µM	63.5 ± 4.99%	14.3 ± 0.8 ×10⁻⁶ cm/s	10.8 ± 1.03 µM	competitive inhibitor	0.19 ± 0.016 µM	competitive inhibitor					
CCOc1ccc(C2=NNC(c3ccc(F)cc3)C2)cc1 (stereo not shown) [EH7, 3-(4-ethoxyphenyl)-5-(4-fluorophenyl)-4,5-dihydro-1H-pyrazole]		46.9 ± 1.25%	8.38 ± 0.88 µM	133.0	4.03 ± 0.53%	0.063 ± 0.0042 µM	74 ± 0.71%	14.1 ± 0.71 ×10⁻⁶ cm/s	3.64 ± 0.18 µM	competitive inhibitor	0.034 ± 0.0067 µM	competitive inhibitor	12.5%	89.5%	reversible inhibitor		
CCOc1ccc(C2=NNC(c3ccc(Br)cc3)C2)cc1 (stereo not shown) [EH8, 5-(4-bromophenyl)-3-(4-ethoxyphenyl)-4,5-dihydro-1H-pyrazole]		33.5 ± 0.65%	4.31 ± 0.013 µM	6.3	11.3 ± 0.13%	0.69 ± 0.017 µM	53.7 ± 2.15%	14.6 ± 0.26 ×10⁻⁶ cm/s									
CN1C(C(=O)Nc2ccccn2)=C(O)c2ccccc2S1(=O)=O [Piroxicam, reference compound]	2.5 ×10⁻⁶ cm/s							2.43 ± 0.3 ×10⁻⁶ cm/s								CNS+/−	
CC(=O)[C@H]1CC[C@H]2[C@@H]3CCC4=CC(=O)CC[C@]4(C)[C@H]3CC[C@]12C [Progesterone, reference compound]																	9.02 ± 0.11 ×10^−6 cm/s
